The target of the experiment is bovine cardiac myofibrils (full-length cardiac myosin ATPase in the native sarcomere) (Bos taurus (Bovine), UniProt Q9BE39). The experiment in a line: Skinned bovine cardiac myofibril ATPase assay (PK/LDH-coupled). The format is biochemical. Particulars: Ca2+ activating to 75% of maximal rate; for CDMF75 IC15: concentration giving 15% inhibition; for IC50: read-out: CDMF75 IC50. The gist of the method: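 Triton-skinned bovine left-ventricle myofibrils (1 mg/mL) in PM 12 buffer (12 mM PIPES, 2 mM MgCl2, pH 6.8) with 50 μM ATP, 0.6 mM EGTA and CaCl2 set for 50% or 75% activation. Steady-state ATPase inhibition followed by PK/LDH-coupled NADH oxidation at 340 nm.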

Results on eleven molecules are retold here after patent US12065436B2, “Cardiac sarcomere inhibitors” (Cytokinetics, Inc., priority 2018, dated 2024).

bovine cardiac myofibrils (full-length cardiac myosin ATPase in the native sarcomere), sequence (Q9BE39 whole entry): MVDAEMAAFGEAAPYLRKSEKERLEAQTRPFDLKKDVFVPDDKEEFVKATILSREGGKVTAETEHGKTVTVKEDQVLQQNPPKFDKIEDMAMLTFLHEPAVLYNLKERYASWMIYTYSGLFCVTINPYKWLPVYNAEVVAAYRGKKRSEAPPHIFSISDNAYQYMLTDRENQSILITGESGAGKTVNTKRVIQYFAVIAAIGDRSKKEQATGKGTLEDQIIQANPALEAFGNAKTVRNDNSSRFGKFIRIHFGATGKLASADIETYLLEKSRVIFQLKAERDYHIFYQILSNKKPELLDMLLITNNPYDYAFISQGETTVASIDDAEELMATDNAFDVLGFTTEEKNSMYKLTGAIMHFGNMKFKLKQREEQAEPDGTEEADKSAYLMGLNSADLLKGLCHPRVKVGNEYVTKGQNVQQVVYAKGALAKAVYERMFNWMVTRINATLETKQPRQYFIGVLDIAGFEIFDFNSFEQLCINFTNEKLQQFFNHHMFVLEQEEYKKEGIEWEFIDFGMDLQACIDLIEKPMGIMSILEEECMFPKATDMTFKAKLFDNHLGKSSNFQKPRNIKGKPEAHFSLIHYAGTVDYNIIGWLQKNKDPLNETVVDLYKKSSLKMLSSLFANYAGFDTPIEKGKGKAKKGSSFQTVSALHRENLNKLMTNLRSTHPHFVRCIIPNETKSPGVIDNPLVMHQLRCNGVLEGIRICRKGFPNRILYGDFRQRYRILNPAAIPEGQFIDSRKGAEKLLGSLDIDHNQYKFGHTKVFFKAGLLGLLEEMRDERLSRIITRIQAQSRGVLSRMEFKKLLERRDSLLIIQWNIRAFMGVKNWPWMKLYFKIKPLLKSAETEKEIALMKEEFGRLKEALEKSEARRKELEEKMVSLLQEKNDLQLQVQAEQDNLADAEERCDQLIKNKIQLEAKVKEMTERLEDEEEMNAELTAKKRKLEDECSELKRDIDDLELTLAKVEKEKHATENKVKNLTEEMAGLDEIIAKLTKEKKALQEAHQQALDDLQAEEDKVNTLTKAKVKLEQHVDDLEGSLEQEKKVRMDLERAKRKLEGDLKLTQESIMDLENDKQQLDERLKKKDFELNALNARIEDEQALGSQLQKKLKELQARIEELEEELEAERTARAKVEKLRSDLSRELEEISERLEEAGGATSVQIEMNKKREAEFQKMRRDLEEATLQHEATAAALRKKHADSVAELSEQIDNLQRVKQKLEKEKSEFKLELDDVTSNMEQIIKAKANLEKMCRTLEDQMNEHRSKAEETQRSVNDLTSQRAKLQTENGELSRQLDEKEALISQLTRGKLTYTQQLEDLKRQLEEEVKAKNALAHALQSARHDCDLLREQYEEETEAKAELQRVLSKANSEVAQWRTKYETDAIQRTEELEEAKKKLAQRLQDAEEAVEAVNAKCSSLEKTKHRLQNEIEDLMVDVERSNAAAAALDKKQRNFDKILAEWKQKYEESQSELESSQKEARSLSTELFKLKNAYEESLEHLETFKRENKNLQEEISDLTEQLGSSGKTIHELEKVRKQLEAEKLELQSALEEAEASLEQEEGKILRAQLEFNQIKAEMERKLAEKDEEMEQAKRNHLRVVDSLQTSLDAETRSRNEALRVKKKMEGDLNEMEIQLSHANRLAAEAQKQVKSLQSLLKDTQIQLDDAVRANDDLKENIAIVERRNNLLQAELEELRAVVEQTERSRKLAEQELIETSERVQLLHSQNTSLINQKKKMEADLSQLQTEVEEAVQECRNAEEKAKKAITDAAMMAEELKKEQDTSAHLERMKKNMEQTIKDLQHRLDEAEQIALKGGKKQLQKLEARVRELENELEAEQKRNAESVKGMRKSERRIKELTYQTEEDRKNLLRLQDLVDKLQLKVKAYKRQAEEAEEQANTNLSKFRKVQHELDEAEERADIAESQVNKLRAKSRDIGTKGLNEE
bovine cardiac myofibrils (full-length cardiac myosin ATPase in the native sarcomere), sequence (P85100 whole entry partner): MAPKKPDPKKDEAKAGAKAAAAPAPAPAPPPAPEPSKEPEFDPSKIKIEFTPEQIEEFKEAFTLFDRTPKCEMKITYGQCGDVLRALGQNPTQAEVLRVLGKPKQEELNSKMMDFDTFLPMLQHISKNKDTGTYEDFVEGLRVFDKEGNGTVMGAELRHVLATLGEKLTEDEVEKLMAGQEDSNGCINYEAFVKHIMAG
bovine cardiac myofibrils (full-length cardiac myosin ATPase in the native sarcomere), sequence (Q3SZE5 whole entry partner): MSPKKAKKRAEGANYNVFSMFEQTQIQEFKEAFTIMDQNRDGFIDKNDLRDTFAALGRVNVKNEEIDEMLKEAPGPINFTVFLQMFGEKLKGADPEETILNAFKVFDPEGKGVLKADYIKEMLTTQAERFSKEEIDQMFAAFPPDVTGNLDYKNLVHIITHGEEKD

What is called IC50 is the concentration needed to halve the response being measured. As for `COCc1nc(-c2ccc3c(c2)CC[C@H]3NC(=O)c2cn(CCO)nc2C)no1` [Compound 695, (R)-1-(2-hydroxyethyl)-N-(5-(5-(methoxymethyl)-1,2,4-oxadiazol-3-yl)-2,3-dihydro-1H-inden-1-yl)-3-methyl-1H-pyrazole-4-carboxamide], the “CDMF75 IC15” value is 2.1 µM and the IC50 stood at 7.8 µM.
For the molecule `COCc1nc(-c2ccc3c(c2)CC[C@H]3NC(=O)c2cnn(C)c2C)no1` [Compound 181, (R)-N-(5-(5-(methoxymethyl)-1,2,4-oxadiazol-3-yl)-2,3-dihydro-1H-inden-1-yl)-1,5-dimethyl-1H-pyrazole-4-carboxamide], the “CDMF75 IC15” value was 1.1 µM and the half-maximal inhibitory concentration (IC50) was 4 µM.
For `O=C(N[C@@H]1CCc2cc(-c3noc(C(F)F)n3)ccc21)C1COC1` [Compound 288, (R)-N-(5-(5-(difluoromethyl)-1,2,4-oxadiazol-3-yl)-2,3-dihydro-1H-inden-1-yl)oxetane-3-carboxamide], in that order: 10.6 µM and more than 39.2 µM.
For the molecule `CCc1nc(-c2ccc3c(c2)CC[C@H]3NC(=O)[C@@H]2CCC(=O)N2)no1` [Compound 337, (S)-N-((R)-5-(5-ethyl-1,2,4-oxadiazol-3-yl)-2,3-dihydro-1H-inden-1-yl)-5-oxopyrrolidine-2-carboxamide], the “CDMF75 IC15” value came out at 24.7 µM and the IC50 was more than 39.2 µM.
With `Cc1c(C(=O)NC2CCc3cc(-c4noc(C(F)F)n4)ccc32)cnn1C` (stereo not shown) [Compound 27, N-(5-(5-(difluoromethyl)-1,2,4-oxadiazol-3-yl)-2,3-dihydro-1H-inden-1-yl)-1,5-dimethyl-1H-pyrazole-4-carboxamide], the “CDMF75 IC15” value was 0.8 µM and the concentration for half-maximal inhibition (IC50) turned out to be 3.3 µM.
`CCc1nn(C)cc1C(=O)NC1CCc2cc(-c3noc(C(F)F)n3)ccc21` (stereo not shown) [Compound 25, N-(5-(5-(difluoromethyl)-1,2,4-oxadiazol-3-yl)-2,3-dihydro-1H-inden-1-yl)-3-ethyl-1-methyl-1H-pyrazole-4-carboxamide]: the “CDMF75 IC15” value was 3.9 µM and the half-inhibitory concentration (IC50) came to 16.5 µM.
For `Cc1cc(-c2ccc3c(c2)CC[C@H]3NC(=O)c2nnn(C)n2)no1` [Compound 252, (R)-2-methyl-N-(5-(5-methylisoxazol-3-yl)-2,3-dihydro-1H-inden-1-yl)-2H-tetrazole-5-carboxamide], in that order: 0.4 µM and 1.5 µM.
As for `O=C(N[C@@H]1CCc2cc(-c3noc(C(F)F)n3)ccc21)c1cnn(CCO)c1` [Compound 528, (R)-N-(5-(5-(difluoromethyl)-1,2,4-oxadiazol-3-yl)-2,3-dihydro-1H-inden-1-yl)-1-(2-hydroxyethyl)-1H-pyrazole-4-carboxamide], the “CDMF75 IC15” value came to 1.1 µM and the IC50 amounted to 4.9 µM.
On to `Cc1nc(-c2ccc3c(c2)OCC3NC(=O)c2nnn(C)n2)no1` (stereo not shown) [Compound 199, 2-methyl-N-(6-(5-methyl-1,2,4-oxadiazol-3-yl)-2,3-dihydrobenzofuran-3-yl)-2H-tetrazole-5-carboxamide], for which the “CDMF75 IC15” value was 6.0 µM and the 50% inhibitory concentration (IC50) is 24.1 µM.
For `CCc1nc(-c2ccc3c(c2)CC[C@H]3NC(=O)c2cccc(C(C)O)c2)no1` (stereo partly drawn) [Compound 715, N-((R)-5-(5-ethyl-1,2,4-oxadiazol-3-yl)-2,3-dihydro-1H-inden-1-yl)-3-(1-hydroxyethyl)benzamide], in that order: 0.4 µM and 1.5 µM.
The matching figures for `Cc1c(C(=O)N[C@@H]2CCc3cc(-c4noc(C(F)F)n4)ccc32)cnn1C` [Compound 91, (R)-N-(5-(5-(difluoromethyl)-1,2,4-oxadiazol-3-yl)-2,3-dihydro-1H-inden-1-yl)-1,5-dimethyl-1H-pyrazole-4-carboxamide]: 0.5 µM and 1.8 µM.
